Assay results taken from PubChem BioAssay AID1845204 (Molecular Pharmacology Branch, DTP, NCI, 2023).

System: HSSY-II tumor spheroid viability
Experiment: Anticancer human tumor HSSY-II cell line growth inhibition;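 note: spheroids exposed to compounds for seven days before reading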;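 for viability, T/C: percent of DMSO vehicle control viability so 100% = untreated level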
Settings: spheroids with HUVEC and MSC; for IC50: curve of first compound; for viability, T/C: stronger effect = lower value
Summary of the method: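 Complex tumor spheroids combined malignant cells with endothelial cells and mesenchymal stem cells. DNA-damaging drugs and DNA repair inhibitors were tested alone and in combination, at half-log dilutions down from clinical Cmax (top 10 microM if Cmax unknown), 0.25% DMSO final.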

With `O=C(c1cc(Cc2n[nH]c(=O)c3ccccc23)ccc1F)N1CCN(C(=O)C2CC2)CC1` + COc1cc2c(cc1O)CCNC21CSC2c3c(OC(C)=O)c(C)c4c(c3C(COC1=O)N1C(O)C3Cc5cc(C)c(OC)c(O)c5C(C21)N3C)OCO4 as the molecule, how does the IC50 (second compound 30 pM) read?
Its IC50 is 3000 nM.

And the IC50 (second compound 94.9 pM)?
The IC50 was 875 nM.

What about the IC50 (second compound 0.0003 µM) of the same molecule?
The IC50 was under 94.9 nM.

And the IC50 (second compound 0.000949 µM)?
The IC50 was under 94.9 nM.

And the IC50 (second compound 0.003 µM)?
Its IC50 is under 94.9 nM.

And the viability, T/C (second compound 30 pM, first compound 0.0949 µM)?
Its viability, T/C is 91.1%.

And the viability, T/C (second compound 30 pM, first compound 0.3 µM)?
The viability, T/C was 85.6%.

And the viability, T/C (second compound 30 pM, first compound 0.949 µM)?
The viability, T/C was 81.6%.

What about the viability, T/C (second compound 30 pM, first compound 3 µM) of the same molecule?
The viability, T/C was 50.9%.

What about the viability, T/C (second compound 30 pM, first compound 9.49 µM) of the same molecule?
The viability, T/C was 12.3%.

What about the viability, T/C (second compound 30 pM, first compound 30 µM) of the same molecule?
Its viability, T/C is 11.1%.

What about the viability, T/C (second compound 94.9 pM, first compound 0.0949 µM) of the same molecule?
Its viability, T/C is 73%.

What about the viability, T/C (second compound 94.9 pM, first compound 0.3 µM) of the same molecule?
The viability, T/C was 65.4%.

And the viability, T/C (second compound 94.9 pM, first compound 0.949 µM)?
Its viability, T/C is 49.7%.

What about the viability, T/C (second compound 94.9 pM, first compound 3 µM) of the same molecule?
The viability, T/C was 20.2%.

What about the viability, T/C (second compound 94.9 pM, first compound 9.49 µM) of the same molecule?
Its viability, T/C is 9.72%.

And the viability, T/C (second compound 94.9 pM, first compound 30 µM)?
Its viability, T/C is 8.42%.

And the viability, T/C (second compound 0.0003 µM, first compound 0.0949 µM)?
The viability, T/C was 11.3%.

What about the viability, T/C (second compound 0.0003 µM, first compound 0.3 µM) of the same molecule?
Its viability, T/C is 10.6%.

And the viability, T/C (second compound 0.0003 µM, first compound 0.949 µM)?
Its viability, T/C is 8.99%.

What about the viability, T/C (second compound 0.0003 µM, first compound 3 µM) of the same molecule?
Its viability, T/C is 8.1%.

And the viability, T/C (second compound 0.0003 µM, first compound 9.49 µM)?
The viability, T/C was 7.62%.

What about the viability, T/C (second compound 0.0003 µM, first compound 30 µM) of the same molecule?
The viability, T/C was 5.94%.

What about the viability, T/C (second compound 0.000949 µM, first compound 0.0949 µM) of the same molecule?
Its viability, T/C is 2.49%.

And the viability, T/C (second compound 0.000949 µM, first compound 0.3 µM)?
The viability, T/C was 1.82%.

And the viability, T/C (second compound 0.000949 µM, first compound 0.949 µM)?
Its viability, T/C is 2.22%.

What about the viability, T/C (second compound 0.000949 µM, first compound 3 µM) of the same molecule?
The viability, T/C was 1.13%.

And the viability, T/C (second compound 0.000949 µM, first compound 9.49 µM)?
Its viability, T/C is 0.5%.

What about the viability, T/C (second compound 0.000949 µM, first compound 30 µM) of the same molecule?
The viability, T/C was 0.21%.

What about the viability, T/C (second compound 0.003 µM, first compound 0.0949 µM) of the same molecule?
Its viability, T/C is 0.29%.

And the viability, T/C (second compound 0.003 µM, first compound 0.3 µM)?
The viability, T/C was 0.34%.

What about the viability, T/C (second compound 0.003 µM, first compound 0.949 µM) of the same molecule?
Its viability, T/C is 0.26%.

And the viability, T/C (second compound 0.003 µM, first compound 3 µM)?
The viability, T/C was 0.22%.

What about the viability, T/C (second compound 0.003 µM, first compound 9.49 µM) of the same molecule?
The viability, T/C was 0.24%.

And the viability, T/C (second compound 0.003 µM, first compound 30 µM)?
The viability, T/C was 0.36%.
